Experimental data from the NIST ThermoML archive (doi:10.1021/acs.jced.8b00132).
Where “and” joins values, the source holds several entries; their conditions need not be identical. Identical values can stand only once.

Conditions: Liquid, transient hot wire

O=C(C(F)(F)C(F)(F)F)C(F)(C(F)(F)F)C(F)(F)F [dodecafluoro-2-methylpentan-3-one]
Conditions	thermal conductivity
330.45 K, 36716 kPa	0.06714 W/m/K
330.46 K, 179 kPa	0.052 W/m/K
330.47 K, 179 kPa	0.05202 W/m/K
330.48 K, 180 kPa	0.05201 W/m/K
330.48 K, 181 kPa	0.052 W/m/K
330.48 K, 14128 kPa	0.05889 W/m/K
330.48 K, 14134 kPa	0.05891 W/m/K
330.53 K, 27942 kPa	0.0642 W/m/K
330.54 K, 27944 kPa	0.06418 W/m/K
330.58 K, 8615 kPa	0.0564 W/m/K
330.58 K, 8617 kPa	0.05641 W/m/K
330.63 K, 4467 kPa	0.05435 W/m/K
330.63 K, 20513 kPa	0.06146 W/m/K
330.64 K, 4463 kPa	0.05433 W/m/K
330.64 K, 20514 kPa	0.06146 W/m/K
330.73 K, 179 kPa	0.05196 W/m/K and 0.05197 W/m/K
330.73 K, 181 kPa	0.05196 W/m/K and 0.05215 W/m/K
330.73 K, 14130 kPa	0.05885 W/m/K
330.74 K, 14134 kPa	0.0589 W/m/K
330.84 K, 8608 kPa	0.05637 W/m/K
330.84 K, 8609 kPa	0.05639 W/m/K
330.91 K, 4465 kPa	0.05432 W/m/K and 0.0543 W/m/K
331.01 K, 179 kPa	0.05176 W/m/K and 0.05194 W/m/K
331.01 K, 180 kPa	0.05194 W/m/K
331.01 K, 181 kPa	0.05193 W/m/K
331.09 K, 3942 kPa	0.05385 W/m/K
331.1 K, 3945 kPa	0.05411 W/m/K
331.21 K, 28078 kPa	0.06464 W/m/K
331.22 K, 20447 kPa	0.06133 W/m/K
331.22 K, 28080 kPa	0.06416 W/m/K
331.23 K, 20449 kPa	0.06095 W/m/K
331.24 K, 14112 kPa	0.05849 W/m/K
331.25 K, 14113 kPa	0.05865 W/m/K
331.28 K, 8580 kPa	0.05626 W/m/K
331.28 K, 8582 kPa	0.05648 W/m/K
331.31 K, 242 kPa	0.05138 W/m/K and 0.05151 W/m/K
331.36 K, 73 kPa	0.05184 W/m/K
331.36 K, 69235 kPa	0.07553 W/m/K
331.36 K, 69237 kPa	0.07531 W/m/K
331.37 K, 107 kPa	0.05182 W/m/K
331.37 K, 57734 kPa	0.07228 W/m/K
331.37 K, 57739 kPa	0.07238 W/m/K
